Results as given in ChEMBL document CHEMBL1201862, “PubChem BioAssay data set” (2004).
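Tested at 5 concentrations; 48 h exposure; 96-well plates; endpoints linearly interpolated, else capped at highest concentration. The concentration for 50% growth inhibition is given as GI50.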 Calls of active or inactive are those of the source. Rule as the data show it: active = GI50 up to about 1.1 µM and inactive = higher.

Columns and labels:
Test in all cases: NCI tumour cell line growth inhibition, 48 h
786-0 = tested on: 786-0
A498 = tested on: A498
A549 = tested on: A549
ACHN = tested on: ACHN
BT-549 = tested on: BT-549
CCRF-CEM = tested on: CCRF-CEM
COLO 205 = tested on: COLO 205
DU-145 = tested on: DU-145
EKVX = tested on: EKVX
HCC 2998 = tested on: HCC 2998
HCT-116 = tested on: HCT-116
HCT-15 = tested on: HCT-15
HL-60 = tested on: HL-60
HOP-62 = tested on: HOP-62
HOP-92 = tested on: HOP-92
HT-29 = tested on: HT-29
Hs-578T = tested on: Hs-578T
IGROV-1 = tested on: IGROV-1
K562 = tested on: K562
KM12 = tested on: KM12
LOX IMVI = tested on: LOX IMVI
M14 = tested on: M14
MCF7 = tested on: MCF7
MDA-MB-231 = tested on: MDA-MB-231
MDA-MB-435 = tested on: MDA-MB-435
MDA-N = tested on: MDA-N
MOLT-4 = tested on: MOLT-4
Malme-3M = tested on: Malme-3M
NCI-H226 = tested on: NCI-H226
NCI-H23 = tested on: NCI-H23
NCI-H460 = tested on: NCI-H460
NCI-H522 = tested on: NCI-H522
NCI/ADR-RES = tested on: NCI/ADR-RES
OVCAR-3 = tested on: OVCAR-3
OVCAR-4 = tested on: OVCAR-4
OVCAR-5 = tested on: OVCAR-5
OVCAR-8 = tested on: OVCAR-8
PC-3 = tested on: PC-3
RPMI-8226 = tested on: RPMI-8226
RXF 393 = tested on: RXF 393
SF-268 = tested on: SF-268
SF-295 = tested on: SF-295
SK-MEL-28 = tested on: SK-MEL-28
SK-MEL-5 = tested on: SK-MEL-5
SK-OV-3 = tested on: SK-OV-3
SN12C = tested on: SN12C
SNB-19 = tested on: SNB-19
SNB-75 = tested on: SNB-75
SW-620 = tested on: SW-620
T47D = tested on: T47D
TK-10 = tested on: TK-10
U-251 = tested on: U-251
UACC-257 = tested on: UACC-257
UACC-62 = tested on: UACC-62
UO-31 = tested on: UO-31
CAKI-1 = tested on: CAKI-1
SF-539 = tested on: SF-539
SK-MEL-2 = tested on: SK-MEL-2

Measured: GI50

c1ccc(-c2cnc(-c3ccc(-c4ncc(-c5ccccc5)o4)cc3)o2)cc1
inactive: 786-0 > 100 µM | A498 > 100 µM | A549 > 100 µM | ACHN > 100 µM | BT-549 > 100 µM | CCRF-CEM > 100 µM | COLO 205 > 100 µM | DU-145 > 100 µM | EKVX > 100 µM | HCC 2998 > 100 µM | HCT-116 > 100 µM | HL-60 > 100 µM | HOP-62 > 100 µM | HOP-92 > 100 µM | HT-29 > 100 µM | Hs-578T > 100 µM | IGROV-1 > 100 µM | K562 > 100 µM | KM12 > 100 µM | LOX IMVI > 100 µM | M14 > 100 µM | MCF7 > 100 µM | MDA-MB-231 > 100 µM | MDA-MB-435 > 100 µM | MDA-N > 100 µM | MOLT-4 > 100 µM | Malme-3M > 100 µM | NCI-H226 > 100 µM | NCI-H23 > 100 µM | NCI-H460 > 100 µM | NCI-H522 > 100 µM | NCI/ADR-RES > 100 µM | OVCAR-3 > 100 µM | OVCAR-4 > 100 µM | OVCAR-5 > 100 µM | OVCAR-8 > 100 µM | PC-3 > 100 µM | RPMI-8226 > 100 µM | RXF 393 > 100 µM | SF-268 > 100 µM | SF-295 > 100 µM | SK-MEL-28 > 100 µM | SK-MEL-5 > 100 µM | SK-OV-3 > 100 µM | SN12C > 100 µM | SNB-19 > 100 µM | SNB-75 56.5 µM | SW-620 > 100 µM | T47D > 100 µM | TK-10 > 100 µM | U-251 > 100 µM | UACC-257 > 100 µM | UACC-62 > 100 µM | UO-31 > 100 µM
> 100 µM: HCT-15

CC(C)(C)OC(=O)NCCCCC(N)C(N)=O (configuration not stated)
> 100 µM: HCT-15
inactive: 786-0 > 100 µM | A498 > 100 µM | A549 > 100 µM | ACHN > 100 µM | BT-549 > 100 µM | CAKI-1 > 100 µM | CCRF-CEM > 100 µM | COLO 205 > 100 µM | DU-145 > 100 µM | EKVX > 100 µM | HCC 2998 > 100 µM | HCT-116 > 100 µM | HOP-62 > 100 µM | HOP-92 > 100 µM | HT-29 > 100 µM | Hs-578T 45.7 µM | IGROV-1 > 100 µM | K562 > 100 µM | KM12 > 100 µM | LOX IMVI > 100 µM | M14 > 100 µM | MCF7 > 100 µM | MDA-MB-231 > 100 µM | MDA-MB-435 > 100 µM | MDA-N > 100 µM | MOLT-4 > 100 µM | Malme-3M > 100 µM | NCI-H226 > 100 µM | NCI-H23 > 100 µM | NCI-H460 > 100 µM | NCI-H522 > 100 µM | NCI/ADR-RES > 100 µM | OVCAR-3 > 100 µM | OVCAR-4 > 100 µM | OVCAR-5 > 100 µM | OVCAR-8 > 100 µM | PC-3 > 100 µM | RPMI-8226 > 100 µM | RXF 393 > 100 µM | SF-268 > 100 µM | SF-295 > 100 µM | SF-539 > 100 µM | SK-MEL-28 > 100 µM | SK-MEL-2 > 100 µM | SK-MEL-5 78.7 µM | SK-OV-3 54.7 µM | SN12C > 100 µM | SNB-19 > 100 µM | SNB-75 > 100 µM | SW-620 > 100 µM | T47D > 100 µM | TK-10 > 100 µM | U-251 > 100 µM | UACC-257 > 100 µM | UACC-62 7.46 µM | UO-31 > 100 µM
